Structure (SMILES)	melting point [°C]
CCC(C)(C)NS(=O)(=O)c1ccc(Cl)nc1	86 to 88
CCCC(NC(=O)Cc1ccccc1)C(=O)O (stereo not given)	133 to 135
CCOC(=O)N1CCC(NC(N)=S)CC1	160 to 162
Sc1nc2ncccn2n1	234 to 236
CN(C)C(Cc1ccccc1)C(=O)O (stereo not given)	225 to 227
CC(C)(C)c1ccc(Nc2ncccc2C(N)=S)cc1	152 to 154
CC(C)(C)n1ncc(Cl)c(Cl)c1=O	64 to 66
CC(C)(C)OC(=O)N1CCC(CC#N)CC1	72 to 74
Cc1cc(C(=O)O)nn1-c1ccc(Br)cc1	211 to 213
Cc1cccc(C(=O)N2CCSCC2)c1O	88 to 90
CC(C)(C)OC(=O)NCCCC(N)=S	94 to 96
O=S(=O)(Cl)CCS(=O)(=O)c1ccc(F)cc1	145 to 147
N#Cc1c(-c2ccccc2)nc(S)[nH]c1=O	327 to 329
Nc1ccc(S(N)(=O)=O)cc1Cl	156 to 158
N#Cc1cc(S(=O)(=O)Cl)ccc1Cl	49 to 51
Cc1noc2ncc(C(=O)O)cc12	229 to 231
CC(NS(=O)(=O)c1cnn(C)c1)C(=O)O (stereo not given)	169 to 171
CC(=O)c1nnn(-c2ccccc2)c1C	99 to 101
CC(O)(c1ccc(O)cc1)C(F)(F)F (stereo not given)	118 to 120
O=C(NC(c1nn[nH]n1)C1CC1)c1ccccc1 (stereo not given)	189 to 191
NC(=O)Cc1ccc2c(c1)CCC2	166 to 168
O=C1NC(=O)C2(Cc3ccccc3C2)N1	264 to 266
CCS(=O)(=O)c1ccc(F)c(C(=O)O)c1	129 to 131
OCc1nnc(-c2ccccc2)o1	129 to 131
CS(=O)(=O)c1ccc(OCCC(=O)O)cc1	108 to 110

Structure (SMILES)	melting point [°C]
NC(=S)NCc1ccc(Br)cc1	159 to 161
Cc1cc(F)c([N+](=O)[O-])cc1S(=O)(=O)Cl	66 to 68
CCOC(=O)c1ncn(-c2ccc(C)cc2)c1N	246 to 248
CNS(=O)(=O)c1ccc(Cl)c(C(=O)O)c1	171 to 173
CC1CCN(S(=O)(=O)N2CCNCC2)CC1	61 to 63
CCNc1ccc(S(=O)(=O)N(C)C)cc1N	161 to 163
O=C(O)c1ccnc(OC2CCCCC2)c1	123 to 125
Cc1nc(S)sc1CC(=O)O	205 to 207
O=C(CN1CCNCC1)Nc1ccc(OC(F)(F)F)cc1	86 to 88
Cc1ccc(C)c(SCC(=O)O)c1	73 to 75
COc1ccc(NC(=O)CC(C)=O)c(OC)c1	96 to 98
C#CCN1CCC[C@H]1C(=O)O	151 to 153
O=C(CCl)c1cc(Cl)sc1Cl	43 to 45
O=c1[nH]c(CCl)nc2cc(-c3ccc(Cl)cc3)sc12	217 to 219
CC(Cl)C(=O)c1c(N)n(C)c(=O)n(C)c1=O (stereo not given)	140 to 142
Nc1cc(Cl)ccc1-n1ccnc1	154 to 156
OCc1nnc(Cc2ccccc2Br)[nH]1	99 to 101
O=C(O)C=Cc1cc(Cl)cc(Cl)c1	130 to 134
Nc1cccc(CS(=O)(=O)C2CCCCC2)c1	106 to 108
C#CCNC(=O)Nc1cccc(C#N)c1	167 to 169
O=C(O)C=C1CCSCC1	56 to 58
Cc1ccc(C)n1-c1nc(CC(=O)O)cs1	100 to 102
O=C(c1cc(Br)c[nH]1)C(Cl)(Cl)Cl	125 to 127
N#Cc1ccc(CN2CCNCC2)cc1	214 to 216
Cn1cc(C(=O)O)c(-c2ccc(F)cc2F)n1	231 to 233

Structure (SMILES)	melting point [°C]
COc1ccc(C(=O)C(C)Br)c(OC)c1 (stereo not given)	66 to 68
O=C(CCCl)Nc1ccc([N+](=O)[O-])cc1	171 to 173
O=C(CC1CCCCC1)Nc1cccc2c1CCCN2	192 to 194
CCCCn1c(N)c(NC)c(=O)[nH]c1=O	201 to 203
O=[N+]([O-])c1ccc(NC2CCCC2)nc1	114 to 116
O=C(O)c1cc(F)ccc1I	146 to 148
O=C(O)CC(Br)C(=O)c1ccc(F)cc1 (stereo not given)	128 to 131
O=C(Nc1ccc(N2CCOCC2)nc1)OCC(F)(F)F	204 to 206
O=S(=O)(c1cccnc1)N1CCNCC1	88 to 90
O=S(=O)(c1ccc(S)nc1)N1CCOCC1	71 to 73
N#Cc1cc(C(F)(F)F)ccc1O	152 to 154
Nc1ccc(Oc2cccc(F)c2)cc1	72 to 74
Cc1noc2nc3c(cc12)CCOC3=O	224 to 226
CCOC(=O)/C(=C(\O)CCl)c1nc(C)cs1	76 to 78
O=C(O)c1ccc(NS(=O)(=O)c2ccc3c(c2)OCCO3)cc1	94 to 97
Nc1nc(Sc2ccccc2)ns1	154 to 156
O=C(O)C1CC(=O)N(Cc2ccccc2)C1 (stereo not given)	140 to 144
CC1(C(=O)O)COC(=O)OC1	159 to 161
Nc1cc(Cl)ccc1C(=O)Nc1ccc(Cl)cn1	157 to 159
O=C(O)c1ccc(C(F)(F)F)[nH]c1=O	161 to 163
O=C(O)C1CCn2ccnc2C1 (stereo not given)	231 to 233
CC(C)c1ccsc1C(=O)O	97 to 99
CS(=O)(=O)Nc1cccc(O)c1	93 to 95
Cc1ccc2cccc(S(=O)(=O)Cl)c2n1	113 to 115
Cc1ccc(F)c(-n2cc(O)c(C(=O)O)n2)c1	201 to 203

Structure (SMILES)	melting point [°C]
CC(NC(N)=S)c1ccc(Cl)cc1Cl (stereo not given)	164 to 166
Cn1nc(SCC(=O)O)c(=O)n(C)c1=O	185 to 187
Nc1ccc(Cl)c(C(=O)NCc2cccs2)c1	69 to 71
CCOC(=O)c1cc(C2CC2)[nH]n1	98 to 100
Cc1ccc(C#N)cc1N	76 to 78
CC(N)=NO	118 to 120
COc1cc(OC)c2cc(C(=O)O)[nH]c2c1OC	181 to 183
CC(=O)c1ccc(-c2ccc(Cl)cc2)s1	120 to 122
NC(Cn1cnc2ccccc21)c1ccc(F)cc1 (stereo not given)	86 to 88
COc1ccc(CNC(N)=S)cc1OC	191 to 193
CC(=O)c1cccc(-n2cnnn2)c1	155 to 157
CC(=O)Nc1cnc(NC(C)=O)s1	245 to 247
NC(=O)c1nnc(O)nc1O	294 to 296
O=C(NC1CC1)c1cc(S)nc2ccccc12	301 to 303
Cn1cc(S(=O)(=O)N2CCOCC2)cc1C(=O)NC(=O)CCl	229 to 231
CN(C)S(=O)(=O)c1cccc(C(=O)NCC(=O)O)c1	172 to 176
COc1ccc(C(=O)C(C)Br)cc1OC (stereo not given)	83 to 85
Cc1ccc(S(=O)(=O)Cl)c(C)c1C(=O)O	147 to 149
COC(=O)c1ccc(S(N)(=O)=O)cc1Cl	124 to 126
COC(=O)c1ccc2c(Cl)ncnc2c1	104 to 106
ClCc1cccc(Cl)n1	42 to 44
O=C(O)CCc1nc2sc3c(c2c(=O)[nH]1)CCC3	220 to 222
Cc1ccc(-c2nn(-c3ccccc3)cc2C(=O)O)cc1	229 to 231
CC(C)(C)CCS(N)(=O)=O	91 to 93
Nc1cc(-c2ccccc2)ns1	159 to 161

Structure (SMILES)	melting point [°C]
OC1(Cc2ccc(F)cc2)CCNC1 (stereo not given)	73 to 75
O=C(O)Cn1c(=O)cnc2ccccc21	195 to 199
CC(=O)c1oc2ccccc2c1N	154 to 156
O=C(O)c1cccc2[nH]c(=O)oc12	329 to 331
Cc1cc(C(=O)CCl)c(C)n1Cc1cccs1	83 to 85
O=C(O)c1cccc(-c2ccoc2)c1	144 to 146
NNC(=O)CNc1ccc(F)cc1	80 to 83
COC(=O)COc1c(C)cc(C=O)cc1C	50 to 52
Cn1c(C(=O)O)c(Cl)c2cc(Br)ccc21	250 to 252
CN(C(=O)c1ccc(Br)o1)c1ccccc1C(=O)O	167 to 169
O=C(O)c1ccc(C2CC2)s1	111 to 113
CC(Cl)C(=O)NC(C)c1ccccc1 (stereo not given)	89 to 91
O=C(O)c1cnc2c(cnn2Cc2ccccc2)c1	210 to 212
COc1cc(C=O)ccc1OCCC(=O)O	130 to 132
COCCN(CC(=O)O)C(=O)OC(C)(C)C	76 to 78
O=C1OCCN1c1ccc(O)cc1	177 to 179
c1c[nH]c(CN2CCNCC2)n1	153 to 155
Nc1ccccc1-c1nnnn1C1CC1	97 to 99
Sc1nnc(Nc2ccc(Oc3ccccc3)cc2)s1	183 to 185
Clc1cc(N2CCNCC2)ncn1	100 to 102
CC(SCC(=O)Nc1ccc(Br)cc1)C(=O)O (stereo not given)	139 to 141
CC(N)c1ccccc1NS(=O)(=O)c1cccs1 (stereo not given)	167 to 169
CC(C)(C(=O)O)n1cc([N+](=O)[O-])cn1	121 to 123
Cc1ccccc1COc1cccc(CC(=O)O)c1	52 to 54
O=S(=O)(c1nnc[nH]1)N1CCNCC1	240 to 242

Structure (SMILES)	melting point [°C]
CNc1ccc(Oc2ccccn2)cc1	126 to 128
CCc1n[nH]c(N)c1Br	117 to 119
CC(C)NCCc1nc(-c2ccc(S(C)(=O)=O)cc2)c[nH]1	264 to 266
O=C(O)CCc1cc(Cl)ccc1Br	83 to 85
CCOC=C(C#N)C(=O)O	63 to 65
Cc1cc(C(=O)O)ccc1NC(=O)OC(C)(C)C	178 to 180
CNC(=O)c1cc(Oc2cc(N)ccc2C)ccn1	141 to 143
N#Cc1cc(F)c(S(=O)(=O)Cl)c(F)c1	92 to 94
O=C(O)C1CCC(n2cccc2)CC1 (stereo not given)	143 to 145
Cc1cncc(C(=O)O)c1O	249 to 251
Cc1ccc(C)c(N2N=C(C(=O)O)CCC2=O)c1	149 to 151
Cc1[nH]cnc1CC#N	164 to 166
Brc1nnc2ccccn12	109 to 111
CC(=O)c1cc(-c2ccccc2)ccc1O	49 to 51
Cc1c[nH]c(=O)n1-c1ccc(F)c(F)c1	250 to 252
Nc1cc(Br)c[nH]c1=S	190 to 192
C=CCS(N)(=O)=O	31 to 33
Cc1ccc(C(=O)O)c(Sc2ccccc2)n1	169 to 171
CC(=O)Nc1cccc(N)c1C	142 to 144
CC(Cl)C(=O)Nc1ccc(C(C)(C)C)cc1 (stereo not given)	143 to 145
